Data set [1] in a line: Photochemical stability of aqueous solutions under ambient light exposure. The class given is physicochemical. On the procedure: The observation that, after a 12 month period, in the presence of a cationic surfactant no precipitation and no formation of metallic Silver occur, confirms the relevant role of the cationic surfactants in determining the stabilization in solution of the neutral complex and the role of the ligand L in stabilizing photochemically the Ag^+ ion.
(§1) The neutral complex Ag-L with L = 4-mercaptophenilboronic acid was prepared by adding stoichiometric amounts of 4-mercaptophenylboronic acid to an aqueous solution of a silver salt, such as silver nitrate. […] The aqueous solution of the complex was stabilized by addition of Benzalkonium chloride up to reach a concentration of about 2 x 10^-2 M, which corresponds to the double of its critical micelle concentration.

The next data set can be described thus: Solubility in water. The data set is classed as physicochemical. The following applies: without surfactant. As for the experimental part: The complex of formula Ag-L can be prepared by adding stoichiometric amounts of 4-mercaptophenylboronic acid to an aqueous solution of a silver salt, such as silver nitrate. […] This complex can be solubilized in aqueous solution by addition of a cationic surfactant.
as §1

In data set [2] the test system is Staphylococcus aureus (ATCC- 6538), Pseudomonas aeruginosa (ATCC - 15442). The data set can be described thus: Quantitative suspension test for bactericidal activity (UNI EN 1272:2009). The data set is classed as cell-based. On the procedure: The bactericidal activity was tested on freshly prepared aqueous solutions of the neutral Ag-L complex where the ligand L coordinated to the silver ion is 4-mercaptophenilboronic acid .
Additional tests were carried out on aqueous solutions containing the neutral Silver Ag-L complex and different cationic surfactants and, for purpose of comparison, on aqueous solutions containing only the cationic surfactants at the same concentration levels. It is in fact known that the cationic surfactants used for the purposes of the invention are endowed with antimicrobic activity on their own.
The bactericidal activity tests were carried out according to UNI EN 1272:2009 and UNI EN 13697:2001 standards, which make reference to chemical disinfectants and antiseptics, by using the following test organism: Staphylococcus aureus (ATCC- 6538), as representative of Gram-positive bacteria and Pseudomonas aeruginosa (ATCC - 15442), as representative of Gram-negative bacteria.
On such solutions it was in fact observed a maximum reduction of the bacterial count of ca 6-7 log.

The conditions of data set [3]: treating burns; decreased from 60%; cited from earlier work.
The test system of data set [4] is Staphylococcus epidermidis. The following applies: cited from earlier work.

Take `OB(O)c1ccc([S][Ag])cc1` [AgL]: the “change in color or composition” value in data set [1] (aqueous solution stabilized with Benzalkonium chloride about 2 x 10^-2 M, 12 months ambient light exposure) is given as “did not show any change in color or composition”. Further, in the data set “Solubility in water”, the solubility in water entry was “only partly soluble in water”. Also, the log reduction at 330 µM in data set [2] (Staphylococcus aureus, 0.5 h, concentration of the order of 3.3 x 10^-4 M in water, 30 min of contact, read-out: log reduction of bacterial count) fell in the range of 2 to 3.

Take `O=[N+]([O-])[O-].[Ag+]` [Silver Nitrate, silver nitrate]: the “formation of Ag° precipitate” value in data set [1] (aqueous solution, comparable conditions (ambient light exposure)) was “formation of a black Ag° precipitate after few minutes”. In data set [2] (concentration of the order of 3.3 x 10^-4 M in water, 30 min of contact), the “log reduction of bacterial count” value was 2-3 log. In addition, in data set [2] (solution of concentration comparable to 3.3 x 10^-4 M), the “antimicrobial activity after exposure to ambient light” value was “lose the antimicrobial activity after exposure to ambient light”. Also, the “number of deaths that were a result of sepsis” value in data set [3] is recorded as 28%.

Regarding `[H]/N=C(\N/C(=N/[H])NCCCCCCNC(=N)NC(=N)Nc1ccc(Cl)cc1)Nc1ccc(Cl)cc1` [chlorhexidine], the development of resistance result in data set [4] is given as “no evidence of resistance”.

The values above are taken from patent EP2814319B1, “ANTIMICROBIAL COMPOSITION CONTAINING PHOTOCHEMICALLY STABLE SILVER COMPLEXES” (NM Tech Nanomaterials and Microdevices Technology Ltd., priority 2012, dated 2013).
